From patent US20230117470A1, “SUBSTITUTED PYRAZOLE COMPOUNDS AS TOLL RECEPTOR INHIBITORS” (BRISTOL-MYERS SQUIBB COMPANY, priority 2019, published 2023)

Assays:
Format in all cases: cell-based
human TLR9 = target: T1, human TLR9 (Homo sapiens, UniProt Q9NR96); assay: TLR9 inhibition reporter assay (HEK-Blue cells, SEAP reporter, ODN2006 stimulation); conditions: HEK-Blue cells overexpressing human TLR9, SEAP reporter, ODN2006 5 nM
T1 construct: host or cells: HEK-Blue cells
T1 sequence (Q9NR96 26-1032): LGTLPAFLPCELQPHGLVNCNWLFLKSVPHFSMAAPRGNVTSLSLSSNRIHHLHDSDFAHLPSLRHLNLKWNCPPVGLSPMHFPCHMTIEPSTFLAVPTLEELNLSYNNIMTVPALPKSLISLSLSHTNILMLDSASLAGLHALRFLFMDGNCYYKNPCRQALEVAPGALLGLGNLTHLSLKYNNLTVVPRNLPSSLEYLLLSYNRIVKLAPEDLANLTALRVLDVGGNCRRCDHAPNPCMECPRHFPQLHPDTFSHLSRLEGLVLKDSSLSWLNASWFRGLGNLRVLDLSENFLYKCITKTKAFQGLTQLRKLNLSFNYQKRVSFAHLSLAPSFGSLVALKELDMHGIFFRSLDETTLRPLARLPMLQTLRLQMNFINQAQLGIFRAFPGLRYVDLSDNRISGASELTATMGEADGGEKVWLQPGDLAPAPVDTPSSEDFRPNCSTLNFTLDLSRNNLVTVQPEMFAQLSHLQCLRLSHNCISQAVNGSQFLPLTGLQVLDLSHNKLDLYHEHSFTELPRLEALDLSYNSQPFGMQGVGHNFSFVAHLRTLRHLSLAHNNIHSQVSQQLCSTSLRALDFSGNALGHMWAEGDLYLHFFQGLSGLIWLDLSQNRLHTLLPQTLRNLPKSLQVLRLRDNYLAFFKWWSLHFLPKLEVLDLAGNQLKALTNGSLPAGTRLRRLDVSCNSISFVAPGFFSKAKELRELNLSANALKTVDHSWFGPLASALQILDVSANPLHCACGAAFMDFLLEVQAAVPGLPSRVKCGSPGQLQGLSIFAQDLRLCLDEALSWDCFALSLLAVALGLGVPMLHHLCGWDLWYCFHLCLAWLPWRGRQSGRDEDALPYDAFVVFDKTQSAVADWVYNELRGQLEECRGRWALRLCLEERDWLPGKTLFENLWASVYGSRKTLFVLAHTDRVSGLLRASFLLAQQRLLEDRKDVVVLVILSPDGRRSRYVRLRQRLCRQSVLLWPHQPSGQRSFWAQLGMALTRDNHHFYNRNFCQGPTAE
Method: (§1) TLR7/8/9 Inhibition Reporter Assays
(§2) HEK-Blue™-cells (Invivogen) overexpressing human TLR7, TLR8 or TLR9 receptors were used for screening inhibitors of these receptors using an inducible SEAP (secreted embryonic alkaline phosphatase) reporter gene under the control of the IFN-β minimal promoter fused to five NF-κB and AP-1-binding sites. Briefly, cells are seeded into Greiner 384 well plates (15000 cells per well for TLR7, 20,000 for TLR8 and 25,000 for TLR9) and then treated with test compounds in DMSO to yield a final dose response concentration range of 0.05 nM-50 μM. After a 30 minute compound pre-treatment at room temperature, the cells are then stimulated with a TLR7 ligand (gardiquimod at a final concentration of 7.5 μM), TLR8 ligand (R848 at a final concentration of 15.9 μM) or TLR9 ligand (ODN2006 at a final concentration of 5 nM) to activate NF-κB and AP-1 which induce the production of SLA After a 22 hour incubation at 37° C., […], SEAP levels are determined with the addition of HEK-Blue™ Detection reagent (Invivogen), a cell culture medium that allows for detection of SLAP, according to manufacturer's specifications. The percent inhibition is determined as the % reduction in the HEK-Blue signal present in wells treated with agonist plus DMSO alone compared to wells treated with a known inhibitor.

human TLR8 = target: T2, human TLR8 (Homo sapiens, UniProt Q9NR97); assay: TLR8 inhibition reporter assay (HEK-Blue cells, SEAP reporter, R848 stimulation); conditions: HEK-Blue cells overexpressing human TLR8, SEAP reporter, R848 15.9 μM
T2 construct: host or cells: HEK-Blue cells
T2 sequence (Q9NR97 27-1041): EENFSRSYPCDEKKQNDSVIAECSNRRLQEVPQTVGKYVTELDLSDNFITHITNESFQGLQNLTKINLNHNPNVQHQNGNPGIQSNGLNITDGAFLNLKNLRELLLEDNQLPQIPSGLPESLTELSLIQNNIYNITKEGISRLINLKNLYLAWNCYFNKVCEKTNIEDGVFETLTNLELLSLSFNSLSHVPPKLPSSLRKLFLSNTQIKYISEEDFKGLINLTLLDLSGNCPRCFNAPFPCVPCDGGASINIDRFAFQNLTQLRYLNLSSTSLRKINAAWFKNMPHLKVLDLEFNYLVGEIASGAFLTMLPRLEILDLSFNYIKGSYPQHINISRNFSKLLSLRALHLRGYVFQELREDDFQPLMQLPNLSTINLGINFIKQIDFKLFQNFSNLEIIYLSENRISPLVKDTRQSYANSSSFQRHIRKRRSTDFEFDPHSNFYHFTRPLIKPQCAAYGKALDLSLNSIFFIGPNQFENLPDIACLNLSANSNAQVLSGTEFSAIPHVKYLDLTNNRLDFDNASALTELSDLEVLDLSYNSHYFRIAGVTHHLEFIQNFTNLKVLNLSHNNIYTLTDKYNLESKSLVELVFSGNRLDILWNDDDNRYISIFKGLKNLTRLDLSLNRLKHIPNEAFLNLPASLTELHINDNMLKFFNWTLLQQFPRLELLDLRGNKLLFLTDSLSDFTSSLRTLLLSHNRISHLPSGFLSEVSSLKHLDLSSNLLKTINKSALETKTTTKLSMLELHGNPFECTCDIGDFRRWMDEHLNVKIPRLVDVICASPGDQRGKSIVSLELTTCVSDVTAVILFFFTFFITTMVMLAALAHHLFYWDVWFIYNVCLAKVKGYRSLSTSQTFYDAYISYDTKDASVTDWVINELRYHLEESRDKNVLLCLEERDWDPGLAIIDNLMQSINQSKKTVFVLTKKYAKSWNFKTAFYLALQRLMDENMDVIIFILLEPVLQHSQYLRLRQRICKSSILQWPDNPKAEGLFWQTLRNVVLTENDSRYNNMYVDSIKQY
Method: as §1, §2

human TLR7 = target: T3, human TLR7 (Homo sapiens, UniProt Q9NYK1); assay: TLR7 inhibition reporter assay (HEK-Blue cells, SEAP reporter, gardiquimod stimulation); conditions: HEK-Blue cells overexpressing human TLR7, SEAP reporter, gardiquimod 7.5 μM
T3 construct: host or cells: HEK-Blue cells
T3 sequence (Q9NYK1 27-1049): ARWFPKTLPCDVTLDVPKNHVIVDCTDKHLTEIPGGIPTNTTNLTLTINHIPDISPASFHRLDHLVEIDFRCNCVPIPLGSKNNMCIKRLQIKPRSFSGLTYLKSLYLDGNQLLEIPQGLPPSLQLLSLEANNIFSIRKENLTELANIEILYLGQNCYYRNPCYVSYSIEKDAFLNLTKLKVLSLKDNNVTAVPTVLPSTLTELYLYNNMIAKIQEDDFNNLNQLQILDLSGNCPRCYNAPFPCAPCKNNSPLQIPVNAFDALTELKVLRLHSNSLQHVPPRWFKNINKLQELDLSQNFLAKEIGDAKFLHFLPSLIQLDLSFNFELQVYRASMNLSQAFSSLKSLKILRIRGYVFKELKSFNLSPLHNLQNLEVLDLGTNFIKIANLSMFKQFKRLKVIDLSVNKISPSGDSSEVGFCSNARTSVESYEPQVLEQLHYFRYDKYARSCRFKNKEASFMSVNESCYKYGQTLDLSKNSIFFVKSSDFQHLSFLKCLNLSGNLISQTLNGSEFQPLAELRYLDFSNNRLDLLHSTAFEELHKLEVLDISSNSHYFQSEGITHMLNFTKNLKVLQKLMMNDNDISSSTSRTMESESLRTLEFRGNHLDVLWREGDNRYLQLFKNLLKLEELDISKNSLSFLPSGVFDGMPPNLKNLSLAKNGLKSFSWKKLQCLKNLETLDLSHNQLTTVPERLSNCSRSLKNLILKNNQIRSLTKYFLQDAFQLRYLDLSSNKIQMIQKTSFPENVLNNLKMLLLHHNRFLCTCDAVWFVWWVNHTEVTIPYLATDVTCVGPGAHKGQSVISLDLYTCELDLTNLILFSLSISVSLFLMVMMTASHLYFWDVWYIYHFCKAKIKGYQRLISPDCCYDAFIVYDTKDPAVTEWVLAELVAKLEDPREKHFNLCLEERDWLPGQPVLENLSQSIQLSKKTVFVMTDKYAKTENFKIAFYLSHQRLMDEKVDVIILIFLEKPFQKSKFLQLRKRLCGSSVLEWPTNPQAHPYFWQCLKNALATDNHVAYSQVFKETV
Method: as §1, §2

Compound | IC50 (human TLR9) | IC50 (human TLR8) | IC50 (human TLR7)
Cc1cc(-c2[nH]nc(C(=O)NC3CCN(CCC(F)(F)F)CC3)c2C(C)C)cn2ncnc12 [Example 169] | 9810 nM | 17 nM | 4.17 nM
Cc1cc(-c2[nH]nc(C(=O)NC3CCN(C(C)C)CC3)c2C(C)C)ccn1 [Example 38] | 2280 nM | 4.43 nM | 7.93 nM
Cc1cc(-c2[nH]nc(C(=O)N[C@H]3CC[C@@H](N(C)C)CC3)c2C(C)C)cn2ncnc12 [Example 84] | 9110 nM | 0.84 nM | 0.9 nM
CCC(CC)N[C@H]1CC[C@@H](NC(=O)c2n[nH]c(-c3cc(C)c4ncnn4c3)c2C(C)C)CC1 [Example 100] | 6400 nM | 114 nM | 78.9 nM
Cc1cc(-c2[nH]nc(C(=O)N3CCNCC3)c2C(C)C)cn2ncnc12 [Example 57] | 23100 nM | 1.34 nM | 4.24 nM
Cc1cc(-c2[nH]nc(-c3cc4n(n3)CCNC4)c2C(C)C)cn2ncnc12 [Example 217] | 5870 nM | 5.3 nM | 2.41 nM
Cc1cc(-c2[nH]nc(C(=O)NC3CCN(CC(F)(F)F)CC3)c2C(C)C)cn2ncnc12 [Example 173] | 7790 nM | 7.58 nM | 8.56 nM
CCN1CC(C(=O)N(C)C2CCC(c3n[nH]c(-c4cc(C)c5ncnn5c4)c3C(C)C)CC2)C1 (single isomer, unassigned) [Example 305] | > 50000 nM | 70 nM | 311 nM
Cc1cc(-c2[nH]nc(C(=O)NCC3CN(CC4(C)COC4)CCO3)c2C(C)C)cn2ncnc12 (centres unmarked) [Example 137] | 6730 nM | 40.8 nM | 3.4 nM
Cc1cc(-c2[nH]nc(-c3ccc4c(c3)CCN(C)C4)c2C(C)C)cn2ncnc12 [Example 235, 6-(4-isopropyl-5-(8-methyl-[1,2,4]triazolo[1,5-a]pyridin-6-yl)-1H-pyrazol-3-yl)-2-methyl-1,2,3,4-tetrahydroisoquinoline] | 16600 nM | 1.01 nM | 1.05 nM
Cc1cc(-c2[nH]nc(C3CCC(N(C)C(=O)CN(C)C)CC3)c2C(C)C)cn2ncnc12 (centres unmarked) [Example 296, 2-(dimethylamino)-N-(4-(4-isopropyl-5-(8-methyl-[1,2,4]triazolo[1,5-a]pyridin-6-yl)-1H-pyrazol-3-yl)cyclohexyl)-N-methylacetamide] | 33800 nM | 0.73 nM | 3.45 nM
Cc1cc(-c2[nH]nc(-c3ccc4c(c3)CCN(C3COC3)C4)c2C(C)C)cn2ncnc12 [Example 247] | 42500 nM | 4.42 nM | 5.87 nM
COc1cc(-c2[nH]nc(-c3cnc(C4CCN(C(=O)CN(C)C)CC4)cn3)c2C(C)C)cn2ncnc12 [Example 403] | > 50000 nM | 156 nM | 26.9 nM
Cc1cc(-c2[nH]nc(-c3ccc(C(N)=O)cc3)c2C(C)C)cn2ncnc12 [Example 229] | 4960 nM | 3.71 nM | 7.1 nM
COc1cc(-c2[nH]nc(-c3ccc(C4CCN(CC(=O)N(C)C)CC4)cn3)c2C(C)C)cn2ncnc12 [Example 389, 2-(4-(6-(4-isopropyl-5-(8-methoxy-[1,2,4]triazolo[1,5-a]pyridin-6-yl)-1H-pyrazol-3-yl)pyridin-3-yl)piperidin-1-yl)-N,N-dimethylacetamide] | 37100 nM | 168 nM | 50.3 nM
COc1cc(-c2[nH]nc(-c3cnc(C4CCN(CC5CCC5)CC4)cn3)c2C(C)C)cn2ncnc12 [Example 377] | > 50000 nM | 18.2 nM | 56.9 nM
Cc1cc(-c2[nH]nc(-c3cnc(NC(C)C)cn3)c2C(C)C)cn2ncnc12 [Example 241] | > 50000 nM | 3.19 nM | 8.06 nM
Cc1cc(-c2[nH]nc(C(=O)N3CCN(CCC#N)CC3)c2C(C)C)cn2ncnc12 [Example 19] | 5940 nM | 12 nM | 1.4 nM
Cc1cc(-c2[nH]nc(-c3ncc(C4CCN(C(C)C)CC4)cn3)c2C(C)C)cn2ncnc12 [Example 370] | 6440 nM | 1.38 nM | 12.4 nM
Cc1cc(-c2[nH]nc(C(=O)NC3CNC3)c2C(C)C)cn2ncnc12 [Example 58] | 32800 nM | 1.43 nM | 3.01 nM
Cc1cc(-c2[nH]nc(C(=O)NCC3CCCCN3)c2C(C)C)cn2ncnc12 (centres unmarked) [Example 56] |  | 3.43 nM | 4.36 nM
